Laboratory results as given in patent US6822112B1, “Prostaglandin derivatives” (Taisho Pharmaceutical Co., Ltd., priority 1999, dated 2004).

System: EBTr [NBL-4] cell derived from bovine embryonic trachea
Assay: Measurement of cAMP production promoting action in EBTr [NBL-4] cell
Format: cell-based
Conditions: 1 × 10^−9 M concentration of compound added; EBTr [NBL-4] cells, 15 minutes with 0.5 mM 3-isobutyl-1-methylxanthine; cAMP EIA
Experimental: Measurement of cAMP production promoting action in EBTr [NBL-4] cell derived from bovine embryonic trachea
According to the method of Ito et al. in Br. J. Pharmacol., vol. 99, page 13 (1990), the following test was carried out.
That is, EBTr [NBL-4] cells derived from bovine embryonic trachea (produced by Dainippon Pharmaceutical Co.) were inoculated on 24-well plates (6×10^4 cells/well) (manufactured by Sumitomo Bakelite Co.), and cultured on a growth medium (MEM Earle's medium including 10% calf serum, 2 mM glutamine and non-essential amino acids) for 48 hours, followed by cultivation on 0.5 ml of a growth medium including the test compound and 0.5 mM 3-isobutyl-1-methylxanthine for 15 minutes. After the completion of the reaction, the cells were washed with a phosphate buffer (not including Ca^++ and Mg^++), 0.6 ml of 65% aqueous ethanol solution was added, followed by allowing to stand at 4° C. for an hour, and the resulting cAMP was extracted. After evaporation of the solvent by a centrifugal evaporator, the amount of cAMP was measured by using a cAMP EIA System (manufactured by Amersham Co.).

O=C(O)c1ccc(CCCC2C(Cl)CC(O)C2C#CC(O)C2CCCCC2)cc1 (stereo not drawn) [Compound 35, 9-Deoxy-9β-chloro-2,3,4,16,17,18,19,20-octanor-1,5-inter-p-phenylene-15-cyclohexyl-13,14-didehydro-PGF1α]
cAMP production promoting action (percent to PGD2): 150 percent to PGD2
